Assays:
[1] = Cytotoxicity Huh-7 cells (MTS/PMS); assay type: cell-based; conditions: human, 3-day incubation
Procedure: Cytotoxicity of compounds for use in treating hyperproliferative diseases or disorders was tested in Huh-7 cells using tetrazolium salt MTS combined with the electron acceptor PMS in a 96-well format. Six doses of each compound was tested, starting at about 1.2 μM to 0.4 μM serially diluted in a final 1% DMSO solution in DMEM/F12 media. Terfenadine was used as a positive control. Cells were seeded at 2.5×10^5 cells/mL in each well of the 96-well plates in a final volume of 0.1 mL, and then incubated at 37° C. in the presence of 5% CO2 overnight. Compounds (in media) were added the following day and the treated cells were incubated another 3-days at 37° C. in the presence of 5% CO2. After the 3-day incubation, 20 μL of MTS/PMS (3-(4,5-dimethylthiazol-2-yl)-5-(3-carboxymethoxy-phenyl)-2-(4-sulfophenyl)-2H-tetrazolium) was added to each well. After about a one to four hour incubation of MTS/PMS at 37° C. and 5% CO2—that is, until an OD490 absorbance of ≧0.6 for the wells containing cells with media only, the level of cytotoxicity at each concentration was calculated. […] Dose response results from the cytotoxicity assay (CC50) are provided in Table 4 in comparison with IC50 data (from Table 2)

Calf polymerase alpha = target: T1, Calf polymerase alpha (Bos taurus, UniProt A0AAA9TD94); experiment: Calf polymerase alpha inhibition (Replizyme kit); assay type: biochemical; conditions: for inhibition at 10 µM / % Inhibition: single point screening, at 10 μM; for IC50: dose response
T1 construct: purchased Replizyme Ltd (Heslington, York, UK)
T1 sequence (A0AAA9TD94 1-1441): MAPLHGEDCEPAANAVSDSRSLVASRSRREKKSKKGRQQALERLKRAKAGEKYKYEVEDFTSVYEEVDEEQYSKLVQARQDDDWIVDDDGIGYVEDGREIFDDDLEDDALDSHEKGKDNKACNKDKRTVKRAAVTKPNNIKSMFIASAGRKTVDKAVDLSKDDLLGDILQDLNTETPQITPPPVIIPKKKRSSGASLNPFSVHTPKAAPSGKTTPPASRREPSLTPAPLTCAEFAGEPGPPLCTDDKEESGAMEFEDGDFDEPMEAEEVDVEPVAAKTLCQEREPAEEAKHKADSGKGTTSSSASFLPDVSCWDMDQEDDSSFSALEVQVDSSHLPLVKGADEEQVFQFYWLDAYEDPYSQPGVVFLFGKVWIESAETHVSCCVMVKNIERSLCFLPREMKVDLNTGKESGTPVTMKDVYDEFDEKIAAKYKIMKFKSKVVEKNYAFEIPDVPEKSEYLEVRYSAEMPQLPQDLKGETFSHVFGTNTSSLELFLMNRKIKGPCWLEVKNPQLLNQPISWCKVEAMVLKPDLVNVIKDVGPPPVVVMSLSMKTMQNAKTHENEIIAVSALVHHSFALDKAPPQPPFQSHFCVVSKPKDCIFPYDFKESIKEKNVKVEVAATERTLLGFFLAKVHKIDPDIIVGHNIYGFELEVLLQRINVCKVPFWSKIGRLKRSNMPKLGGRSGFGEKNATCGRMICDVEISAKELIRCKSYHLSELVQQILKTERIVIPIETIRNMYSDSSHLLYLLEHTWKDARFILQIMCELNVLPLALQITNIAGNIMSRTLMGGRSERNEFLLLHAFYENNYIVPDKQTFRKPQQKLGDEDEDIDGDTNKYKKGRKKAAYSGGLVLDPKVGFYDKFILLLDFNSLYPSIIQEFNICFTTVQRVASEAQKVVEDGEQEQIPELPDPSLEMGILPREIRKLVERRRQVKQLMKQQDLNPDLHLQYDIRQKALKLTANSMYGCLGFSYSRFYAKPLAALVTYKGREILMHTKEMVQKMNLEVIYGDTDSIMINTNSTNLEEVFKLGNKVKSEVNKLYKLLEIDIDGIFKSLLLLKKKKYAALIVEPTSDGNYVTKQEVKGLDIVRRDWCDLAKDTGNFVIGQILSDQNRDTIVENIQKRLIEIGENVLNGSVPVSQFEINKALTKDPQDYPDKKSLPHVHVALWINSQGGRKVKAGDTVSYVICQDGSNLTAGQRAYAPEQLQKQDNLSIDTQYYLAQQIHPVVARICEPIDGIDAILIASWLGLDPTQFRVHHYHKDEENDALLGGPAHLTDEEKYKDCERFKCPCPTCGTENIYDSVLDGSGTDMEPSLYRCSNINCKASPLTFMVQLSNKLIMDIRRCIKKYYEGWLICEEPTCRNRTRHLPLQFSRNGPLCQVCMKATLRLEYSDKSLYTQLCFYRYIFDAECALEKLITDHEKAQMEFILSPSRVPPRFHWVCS
Procedure: Calf polymerase alpha and human polymerase alpha investigations were performed with a kit available from Replizyme Ltd (Heslington, York, UK).

[2] = tested on: 5 Leukemia and 5 Colon Cancer Cell Lines; experiment: Cell viability by XTT, cell line panel; assay type: cell-based; conditions: for ARF (Average Response Factor, Average Percentage of Control) / Range (Percentage of Control over the same 10 cell lines): 10 μM; for ARF (Average Response Factor, Average Percentage of Control) / viability at 10 µM: average of the ten Percentage of Control values; for Range (Percentage of Control over the same 10 cell lines): lowest to highest of the ten cell lines; for viability at 10 µM: read-out: ARF (Average Response Factor, Average Percentage of Control)
Procedure: Compounds were solubilized at […] in DMSO and were stored at −20° C. Test compounds were initially tested at a single concentration of 10 μM and a subset of test compounds were further tested in selected cell lines using a six concentration dose response curve.
Cell Preparation Cancer cell lines were passaged in T-75 flasks prior to use in the assay in cell culture medium recommended by the ATCC (American Type Culture Collection; Table 6). On the day preceding the assay, the cells were split 1:2 to assure they were in an exponential growth phase at the time of compound treatment. Total cell and viability quantification was performed using a hemocytometer and Trypan Blue dye exclusion. […] The cells were resuspended at the appropriate cell per mL (Table 6) in tissue culture medium and added to the microtitre plates in a volume of 100 μL. Colon cell lines were incubated overnight at 37° C./5% CO2 to allow for cell adherence to the plates.
Plate Format: Each plate contains cell control wells (cells only), drug calorimetric control wells (drug only) as well as experimental wells (drug plus cells). Samples were tested in triplicate at a concentration of 10 μM and five half-logarithmic dilutions.
Cell Viability by XTT: Following incubation at 37° C. in a 5% CO2 incubator for four days, the test plates were stained with the tetrazolium dye XTT (2,3-bis(2-methoxy-4-nitro-5-sulfophenyl)-5-[(phenylamino)carbonyl]-2H-tetrazolium hydroxide). XTT-tetrazolium was metabolized by the mitochondrial enzymes of metabolically active cells to a soluble formazan product. XTT solution was prepared daily as a stock of 1 mg/mL in RPMI1640. Phenazine methosulfate (PMS) solution was prepared at 0.15 mg/mL in phosphate buffered saline (PBS) and stored in the dark at −20° C. XTT/PMS stock was prepared immediately before use by adding 40 μL of PMS per mL of XTT solution. Fifty (50) microlitres of XTT/PMS was added to each well of the plate and the plate was reincubated for 4 hours at 37° C. Plates were sealed with adhesive plate sealers and shaken gently or inverted several times to mix the soluble formazan product and the plate was read spectrophotometrically at 450/650 nm with a Molecular Devices Vmax plate reader. […] An Average Response Factor (ARF) was calculated for each compound by averaging the ten Percentage of Control values for the cell lines. […] Deviations below 100% control indicate activity. The concentration of each tested compound is 10 μM.

Structure (SMILES) | CC50 at 3 days [1] | inhibition at 10 µM (Calf polymerase alpha) | IC50 (Calf polymerase alpha) | ARF (Average Response Factor, Average Percentage of Control) [2] | Range (Percentage of Control over the same 10 cell lines) [2] | % Inhibition (Calf polymerase alpha) | viability at 10 µM [2]
Cc1ccc(NC(=O)[C@@H](CCCCN)NC(=O)Nc2ccc(OCc3ccccc3)cc2)cc1 [Compound 172, (R)-6-AMINO-2-[3-(4-BENZYLOXY-PHENYL)-UREIDO]-HEXANOIC ACID P-TOLYLAMIDE] | 26 µM | 60% | 7.3 µM |  |  |  | 
Cc1ccc(NC(=O)[C@H](CCCCN)NC(=O)Nc2cccc(Cc3ccccc3)c2)cc1 [Compound 212, (S)-6-AMINO-2-[3-(3-BENZYL-PHENYL)-UREIDO]-HEXANOIC ACID P-TOLYLAMIDE] |  |  |  | 94.2% | 52.7 to 118.6% | 97% | 
NCCCC[C@H](NC(=O)OCC1c2ccccc2-c2ccccc21)C(=O)Nc1ccc(CN)cc1 [Compound 228, (S)-[5-AMINO-1-(4-AMINOMETHYL-PHENYLCARBAMOYL)-PENTYL]-CARBAMIC ACID 9H-FLUOREN-9-YLMETHYL ESTER] | 36.7 µM |  | 5.5 µM |  |  |  | 
Cc1ccc(NC(=O)C[C@H](CCCCN)NC(=O)Nc2ccc3c(c2)Cc2ccccc2-3)cc1 [Compound 247, (S)-7-AMINO-3-[3-(9H-FLUOREN-2-YL)-UREIDO]-HEPTANOIC ACID P-TOLYLAMIDE] |  |  |  | 85.6% | 28.5 to 104.3% | 87% | 
CC1CCC(NC(=O)[C@H](CCCCN)NC(=O)Nc2ccc(OCc3ccccc3)cc2)CC1 (stereo partly drawn) [Compound 264, (S)-6-AMINO-2-[3-(4-BENZYLOXY-PHENYL)-UREIDO]-HEXANOIC ACID (4-METHYL-CYCLOHEXYL)-AMIDE] | 26.6 µM | 41% | 16 µM |  |  | 35% | 
NCc1ccc(NC(=O)[C@@H](NC(=O)Nc2ccc(OCc3ccccc3)cc2)c2ccccc2)cc1 [Compound 305, (S)—N-(4-AMINOMETHYL-PHENYL)-2-[3-(4-BENZYLOXY-PHENYL)-UREIDO]-2-PHENYL-ACETAMIDE] |  | 104% |  |  | 30.9 to 105.9% |  | 79.5%
NCCCCCCNC(=O)[C@@H](NC(=O)Nc1ccc(OCc2ccccc2)cc1)c1ccccc1 [Compound 319, (S)—N-(6-AMINO-HEXYL)-2-[3-(4-BENZYLOXY-PHENYL)-UREIDO]-2-PHENYL-ACETAMIDE] |  | 71% |  |  | 80.0 to 116.4% |  | 95.6%
NCCCC[C@H](NC(=O)Nc1ccc(OCc2ccccc2)cc1)C(=O)Nc1cccc2c1CCC2 [Compound 321, (S)-6-AMINO-2-[3-(4-BENZYLOXY-PHENYL)-UREIDO]-HEXANOIC ACID INDAN-4-YLAMIDE] |  | 101% |  |  | 55.9 to 109.3% |  | 88%
NCCCCN(CC(=O)Nc1ccc(C2CCCCC2)cc1)C(=O)Nc1ccc(C=Cc2ccccc2)cc1 [Compound 324, 2-[1-(4-AMINO-BUTYL)-3-(4-STYRYL-PHENYL)-UREIDO]-N-(4-CYCLOHEXYL-PHENYL)-ACETAMIDE] |  | 92.5% |  |  | 69.3 to 109.9% |  | 95.8%
Cc1ccc(NC(=O)[C@H](CCCCN)NC(=O)CNc2ccccc2Oc2ccccc2)cc1 [Compound 366, (S)-6-AMINO-2-[2-(2-PHENOXY-PHENYLAMINO)-ACETYLAMINO]-HEXANOIC ACID P-TOLYLAMIDE] |  |  |  | 100.4% | 64.8 to 121.1% | 100% | 
Cc1ccc(NC(=O)[C@H](CCCCN)NC(=O)CNc2ccc(Oc3ccccc3)cc2)cc1 [Compound 368, (S)-6-AMINO-2-[2-(4-PHENOXY-PHENYLAMINO)-ACETYLAMINO]-HEXANOIC ACID P-TOLYLAMIDE] | 58 µM |  | 6 µM |  |  |  | 
